In the assay the target is T1, Midkine (Homo sapiens, UniProt P21741).
T1 sequence (P21741 whole entry): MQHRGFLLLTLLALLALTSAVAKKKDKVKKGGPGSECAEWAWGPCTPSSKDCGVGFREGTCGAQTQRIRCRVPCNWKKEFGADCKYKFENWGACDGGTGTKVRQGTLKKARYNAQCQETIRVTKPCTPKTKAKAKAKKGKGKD
Description: Binding affinity to recombinant midkine after 3 mins.
Broadly, the Kd is the constant that tells how readily two partners part at equilibrium. As for `CC(=O)N[C@H]1[C@H](O[C@H]2[C@H](O)[C@@H](O)[C@H](O[C@H]3[C@@H](O)[C@@H](CO)O[C@@H](O[C@H]4[C@H](O)[C@@H](O)[C@H](OCCNC(=O)CCOCCOCCOCCOCCNC(=O)CCCC[C@@H]5SC[C@@H]6NC(=O)N[C@@H]65)O[C@@H]4C(=O)O)[C@@H]3NC(C)=O)O[C@@H]2C(=O)O)O[C@H](CO)[C@H](O)[C@@H]1O`, the Kd amounted to 2030 nM.
Take `CC(=O)N[C@H]1[C@H](O[C@H]2[C@H](O)[C@@H](O)[C@H](O[C@@H]3[C@@H](NC(C)=O)[C@H](O[C@H]4[C@H](O)[C@@H](O)[C@H](OCCNC(=O)CCOCCOCCOCCOCCNC(=O)CCCC[C@@H]5SC[C@@H]6NC(=O)N[C@@H]65)O[C@@H]4C(=O)O)O[C@H](COS(=O)(=O)O)[C@@H]3OS(=O)(=O)O)O[C@@H]2C(=O)O)O[C@H](COS(=O)(=O)O)[C@H](OS(=O)(=O)O)[C@@H]1O`: the dissociation constant (Kd) was 2.62 nM.
Next, `CC(=O)N[C@H]1[C@H](O[C@H]2[C@H](O)[C@@H](O)[C@H](O[C@@H]3[C@@H](NC(C)=O)[C@H](O[C@H]4[C@H](O)[C@@H](O)[C@H](OCCNC(=O)CCOCCOCCOCCOCCNC(=O)CCCC[C@@H]5SC[C@@H]6NC(=O)N[C@@H]65)O[C@@H]4C(=O)O)O[C@H](CO)[C@@H]3OS(=O)(=O)O)O[C@@H]2C(=O)O)O[C@H](CO)[C@H](OS(=O)(=O)O)[C@@H]1O`: 17.8 nM; `CC(=O)N[C@H]1[C@H](O[C@H]2[C@H](O)[C@@H](O)[C@H](O[C@@H]3[C@@H](NC(C)=O)[C@H](O[C@H]4[C@H](O)[C@@H](O)[C@H](OCCNC(=O)CCOCCOCCOCCOCCNC(=O)CCCC[C@@H]5SC[C@@H]6NC(=O)N[C@@H]65)O[C@@H]4C(=O)O)O[C@H](CO)[C@@H]3OS(=O)(=O)O)O[C@@H]2C(=O)O)O[C@H](COS(=O)(=O)O)[C@H](OS(=O)(=O)O)[C@@H]1O`: 11.6 nM.

For the origin of these results see ChEMBL document CHEMBL1949552, “Synthesis and interaction with midkine of biotinylated chondroitin sulfate tetrasaccharides” (Bioorg Med Chem Lett, 2012).
